Source: article PMC4926433, “Isoquercitrin Esters with Mono- or Dicarboxylic Acids: Enzymatic Preparation and Properties” (International Journal of Molecular Sciences, 2016)
Several values for one entry are separate records, joined by “and”; a condition that tells them apart may be missing. Equal values may be shown once. Read-outs that look alike come from different tables or passages of the source. Marks after values point to notes of the source that are not given here.

Key:
[1] = DPPH radical scavenging assay; format: biochemical; settings: methanol, DPPH 20 µM, 30 min; mean ± SE
Description: When reduced, the solution decolorizes in proportion to the strength and concentration of the antiradical compound tested. The results of this test are usually expressed as the concentration of the compound that reduces 50% of the radical (IC50, Table 1). […] However, no clear relationship between the carboxylic chain length and DPPH radical scavenging activity could be established. Antiradical activity was evaluated spectrophotometrically as the ability of the substances to reduce the DPPH radical as described previously with minor modifications.

[2] = test system: rat liver microsomal membranes; assay: Inhibition of microsomal lipid peroxidation induced by tert-butyl hydroperoxide (TBARS); format: biochemical; settings: for IC50: male rat liver microsomes, tert-butylhydroperoxide 1 mM, 37 °C, 30 min, TBARS, mean ± SE, read-out: Lpx (IC50; µM)
Source text: Lipid peroxidation is a type of oxidative degradation of lipids caused by free radicals in cell membranes, resulting in cell damage. The most notable initiators of this chain reaction in living cells are reactive oxygen species (ROS), such as OH· and HO2·, which combine with a hydrogen atom to make water and a fatty acid radical. We used tert-butyl hydroperoxide, a relatively stable organic peroxide, as initiator of peroxidation of rat liver microsomal membranes. The inhibition of this reaction depends not only on the free radical scavenging capacity, but also on the capacity of these compounds to interact with and penetrate lipid bilayers. Isoquercitrin derivatives differed considerably in their capacity to inhibit the peroxidation of microsomal membranes. […] A similar trend, e.g., improving the activity in medium chain derivatives with subsequent drop for longer chain esters, was reported for anti-proliferative activity of IQ monocarboxylic acid esters on the growth of tumoral Caco2 cells, and also for the inhibition of tyrosinase activity.
Pooled microsomes from male rat livers (M9066, Sigma-Aldrich, Prague, Czech Republic) were washed five times using centrifugation and phosphate-buffered saline (PBS, 13,500 rpm, 5 min, 4 °C) to remove sucrose. In addition, 400 µL of the diluted microsomal suspension (0.625 mg protein/mL in PBS), the compounds tested in 50 µL of dimethyl sulfoxide (DMSO, final concentration 5–2000 µM) and 50 µL of tert-butylhydroperoxide in PBS (final concentration 1 mM) were mixed and incubated at 37 °C for 30 min. Determination of lipid peroxidation products as thiobarbituric acid reactive substances (TBARS) and calculation of the IC50 values were performed as described previously.

[3] = ABTS radical cation scavenging (Antioxidant Assay Kit); format: biochemical; settings: Trolox equivalents; aqueous buffer pH 5; mean ± SE
Description: Determination of ABTS scavenging activity involves an electron-transfer reaction. […] The capacity to scavenge the radical cation (ABTS^·) was evaluated using the Antioxidant Assay Kit (CS0790, Sigma-Aldrich, Prague, Czech Republic) and expressed as Trolox equivalents (TE) from the Trolox calibration curve.

[4] = Folin–Ciocalteau reduction (FCR) assay, reducing capacity; format: biochemical; settings: gallic acid equivalents, mean ± SE
Description: Folin-Ciocalteu assay, commonly known as the total phenols assay, determines a sample reducing capacity. FCR contains heteropolyphosphotunstate-molybdates, which are reduced in aqueous milieu at pH ≈ 10 to blue species, presumably (PMoW11O40)^4- [29]. […] This is probably related to high hydrophobicity of these derivatives. Reducing capacity was evaluated using Folin-Ciocalteau reagent with minor modifications as described previously.

[5] = Partition coefficient (log P) in octan-1-ol/phosphate buffer pH 7.4; settings: for logP: octan-1-ol / 6.6 mM phosphate buffer pH 7.4, pH 7.4; for Partition Coefficient: octan-1-ol/6.6 mM phosphate buffer pH 7.4, 25 °C, mean ± SD, triplicate
Description: The hydrophobicity of the prepared compounds was determined by the measurement of partition coefficient P in a mixture of two immiscible phases—octan-1-ol and 6.6 mM phosphate buffer pH 7.4 to simulate physiological conditions. Before the use, octan-1-ol was stirred with the buffer for 16 h at 25 °C to achieve saturation of both phases, which were then separated.
Then, 150 µL of the stock solutions were mixed with 150 µL of the respective immiscible phase in microcentrifuge tubes (1.5 mL) and stirred (750 rpm) for 2 h at 25 °C in triplicates. Phases were separated and the solute concentration in each phase was determined in 96-well microtitration plates using Sunrise™ spectrophotometer (Schoeller Instruments, Prague, Czech Republic) at 400 nm. Log P was calculated as follows: log Poct/buffer = log([A]octan-1-ol/[A]buffer).

Row | Molecule | IC50 [1] [µM] | IC50 [2] | logP [5] | Partition Coefficient [5] | fold more active than IQ in inhibition of microsomal lipid peroxidation ([2]; ratio of Lpx IC50 values relative to IQ (1)) [×] | ABTS (TE) [3] | FCR (GAE) [4] | IC50 ([2]; listed as quercetin) [µM] | FCR (GAE) ([4]; listed as quercetin) | log P ([5]; pH 7.4)
1 | O=C(O)CCCC(=O)OC[C@H]1O[C@@H](Oc2c(-c3ccc(O)c(O)c3)oc3cc(O)cc(O)c3c2=O)[C@H](O)[C@@H](O)[C@@H]1O [Compound 9, 6-(((2R,3S,4S,5R,6S)-6-((2-(3,4-Dihydroxyphenyl)-5,7-dihydroxy-4-oxo-4H-chromen-3-yl)oxy)-3,4,5-trihydroxytetrahydro-2H-pyran-2-yl)methoxy)-6-oxopentanoic acid] | 1.77 ± 0.06 | 1340 ± 54 µM | -1.15 | 0.07 ± 0.01 |  | 2.13 ± 0.08 ^i TE | 1.84 ± 0.05 ^a GAE |  |  | 
2 | quercetin [reference compound] | 3.78 ± 0.15 | 29.8 ± 0.6 µM |  |  |  | 2.14 ± 0.10 ^i TE | 2.80 ± 0.16 GAE | 30 | 2.80 | 
3 | O=c1c(O)c(-c2ccc(O)c(O)c2)oc2cc(O)cc(O)c12 [Quercetin, quercetin, reference compound] |  |  |  | 86.27 ± 0.02 |  |  |  |  |  | 
4 | ((2R,3S,4R,5R,6S)-3-Acetoxy-6-((2-(3,4-dihydroxyphenyl)-5,7-dihydroxy-4-oxo-4H-chromen-3-yl)oxy)-4,5-dihydroxytetrahydro-2H-pyran-2-yl)methyl acetate [Compound 3] | 2.15 ± 0.04 | 433 ± 19 µM |  |  |  | 1.56 ± 0.04 TE | 1.67 ± 0.11 ^b GAE |  |  | 1.59
5 | C[C@@H]1O[C@@H](OC[C@H]2O[C@@H](Oc3c(-c4ccc(O)c(O)c4)oc4cc(O)cc(O)c4c3=O)[C@H](O)[C@@H](O)[C@@H]2O)[C@H](O)[C@H](O)[C@H]1O [Rutin, quercetin-3-O-[α-L-rhamnopyranosyl-(1→6)-β-D-glucopyranose], reference compound] | 3.66 ± 0.39 | 202 ± 8 µM |  | 0.41 ± 0.01 |  | 1.79 ± 0.09 TE | 2.19 ± 0.10 GAE |  |  | 
6 | CC(=O)OC[C@H]1O[C@@H](Oc2c(-c3ccc(O)c(O)c3)oc3cc(O)cc(O)c3c2=O)[C@H](O)[C@@H](O)[C@@H]1O [Compound 2, ((2R,3S,4S,5R,6S)-6-((2-(3,4-Dihydroxyphenyl)-5,7-dihydroxy-4-oxo-4H-chromen-3-yl)oxy)-3,4,5-trihydroxytetrahydro-2H-pyran-2-yl)methyl acetate] | 2.51 ± 0.1 | 42 ± 2.1 µM | 1.14 | 13.76 ± 0.01 | 23 | 2.04 ± 0.07 ^i TE | 1.63 ± 0.07 ^b GAE |  |  | 

The next lines start with results.

Row | IC50 [1] [µM] | IC50 [2] | logP [5] | Partition Coefficient [5] | fold more active than IQ in inhibition of microsomal lipid peroxidation ([2]; ratio of Lpx IC50 values relative to IQ (1)) [×] | Molecule | ABTS (TE) [3] | FCR (GAE) [4] | IC50 ([2]; listed as quercetin) [µM] | FCR (GAE) ([4]; listed as quercetin) | log P ([5]; pH 7.4)
7 | 2.23 ± 0.03 | 1090 ± 36 µM |  |  |  | CCCCCCCCCCCCCCCC(=O)OC[C@H]1O[C@@H](Oc2c(-c3ccc(O)c(O)c3)oc3cc(O)cc(O)c3c2=O)[C@H](O)[C@@H](O)[C@@H]1O [Compound 8, ((2R,3S,4S,5R,6S)-6-((2-(3,4-Dihydroxyphenyl)-5,7-dihydroxy-4-oxo-4H-chromen-3-yl)oxy)-3,4,5-trihydroxytetrahydro-2H-pyran-2-yl)methyl palmitate] | 1.0 TE and 1.00 ± 0.06 ^j TE | 0.76 GAE and 0.76 ± 0.03 ^c GAE |  |  | 
8 | 2.51 ± 0.17 | 24.1 ± 0.8 µM | 1.96 | 90.64 ± 0.03 |  | CCCC(=O)OC[C@H]1O[C@@H](Oc2c(-c3ccc(O)c(O)c3)oc3cc(O)cc(O)c3c2=O)[C@H](O)[C@@H](O)[C@@H]1O [Compound 4, ((2R,3S,4S,5R,6S)-6-((2-(3,4-Dihydroxyphenyl)-5,7-dihydroxy-4-oxo-4H-chromen-3-yl)oxy)-3,4,5-trihydroxytetrahydro-2H-pyran-2-yl)methyl butyrate] | 2.16 ± 0.08 ^i TE | 1.72 ± 0.03 ^a GAE |  |  | 
9 | 1.58 ± 0.05 | 432 ± 24 µM |  |  |  | CCCCCCCCCCCC(=O)OC[C@H]1O[C@@H](Oc2c(-c3ccc(O)c(O)c3)oc3cc(O)cc(O)c3c2=O)[C@H](O)[C@@H](O)[C@@H]1O [Compound 7, ((2R,3S,4S,5R,6S)-6-((2-(3,4-Dihydroxyphenyl)-5,7-dihydroxy-4-oxo-4H-chromen-3-yl)oxy)-3,4,5-trihydroxytetrahydro-2H-pyran-2-yl)methyl dodecanoate] | 1.06 ± 0.09 ^j TE | 0.63 GAE and 0.63 ± 0.07 ^c GAE |  |  | 
10 | 2.97 ± 0.22 | 33 µM and 32.5 µM | 0.48 | 3.00 ± 0.03 |  | O=C(O)CCCCCCCCCCC(=O)OC[C@H]1O[C@@H](Oc2c(-c3ccc(O)c(O)c3)oc3cc(O)cc(O)c3c2=O)[C@H](O)[C@@H](O)[C@@H]1O [Compound 11, 12-(((2R,3S,4S,5R,6S)-6-((2-(3,4-Dihydroxyphenyl)-5,7-dihydroxy-4-oxo-4H-chromen-3-yl)oxy)-3,4,5-trihydroxytetrahydro-2H-pyran-2-yl)methoxy)-12-oxododecanoic acid] | 2.16 ± 0.08 ^i TE | 1.58 GAE and 1.58 ± 0.05 ^b GAE |  |  | 
11 | 3.07 ± 0.1 | 20 µM and 19.7 µM | 2.1 | 126.43 ± 0.01 |  | CCCCCC(=O)OC[C@H]1O[C@@H](Oc2c(-c3ccc(O)c(O)c3)oc3cc(O)cc(O)c3c2=O)[C@H](O)[C@@H](O)[C@@H]1O [Compound 5, ((2R,3S,4S,5R,6S)-6-((2-(3,4-Dihydroxyphenyl)-5,7-dihydroxy-4-oxo-4H-chromen-3-yl)oxy)-3,4,5-trihydroxytetrahydro-2H-pyran-2-yl)methyl hexanoate] | 2.11 ± 0.09 ^i TE | 1.48 ± 0.05 ^b GAE |  |  | 
12 | 2.19 ± 0.12 | 250 ± 19 µM | -1 | 0.10 ± 0.01 |  | O=C(O)CCCCC(=O)OC[C@H]1O[C@@H](Oc2c(-c3ccc(O)c(O)c3)oc3cc(O)cc(O)c3c2=O)[C@H](O)[C@@H](O)[C@@H]1O [Compound 10, 6-(((2R,3S,4S,5R,6S)-6-((2-(3,4-Dihydroxyphenyl)-5,7-dihydroxy-4-oxo-4H-chromen-3-yl)oxy)-3,4,5-trihydroxytetrahydro-2H-pyran-2-yl)methoxy)-6-oxohexanoic acid] | 2.12 ± 0.10 ^i TE | 1.46 ± 0.14 ^b GAE |  |  | 
13 | 2.23 ± 0.08 | 186 ± 3 µM |  |  |  | CCCCCCCC(=O)OC[C@H]1O[C@@H](Oc2c(-c3ccc(O)c(O)c3)oc3cc(O)cc(O)c3c2=O)[C@H](O)[C@@H](O)[C@@H]1O [Compound 6, ((2R,3S,4S,5R,6S)-6-((2-(3,4-Dihydroxyphenyl)-5,7-dihydroxy-4-oxo-4H-chromen-3-yl)oxy)-3,4,5-trihydroxytetrahydro-2H-pyran-2-yl)methyl octanoate] | 1.28 ± 0.07 TE | 1.47 ± 0.10 ^b GAE |  |  | 
